Data taken from patent US4183909A, “Phenylglycine-containing new peptides with gastrine effects and a process for the preparation thereof” (Richter Gedeon Vegyeszeti Gyar Rt., priority 1976, dated 1980).
Square brackets hold non-standard residues; d marks the D form. Peptide text beside a SMILES is read from it. * marks the point of attachment. dPhg = N[C@@H](C(=O)O)c1ccccc1; Phg = N[C@H](C(=O)O)c1ccccc1; X1 = CC(C)(C)OC(=O)NOCC(=O)*

Assays:
gastric acid secretion [1] = details: in vivo; cited from earlier work
gastric acid secretion [2] = assay: Gastric acid secretion increasing effect, administered parenterally or enterally (methods of Ghosh and Schild and of Lai, modified by Pissidis and Clark); assay type: in vivo
Protocol: The biological activities of the new compounds according to the invention were tested by the methods of Ghosh and Schild (Br. J. Pharmac. Chemoth. 13, 54 1958) and Lai (Gut 5, 327 1964), modified by Pissidis and Clark (Gut 8, 196 1967). The pharmacological tests have shown that the new compounds, when administered intravenously, increase the gastric acid secretion to a great extent. […] It is also remarkable that some of the new compounds highly increase the gastric acid secretion after resorption from the rectum.

H-Trp-Met-Asp-Phe-NH2
Gastric acid secretion stimulating effect relative to the total hormone (gastrin) (gastric acid secretion [1]): lower by about one order of magnitude

CSCC[C@H](NC(=O)[C@H](Cc1c[nH]c2ccccc12)NC(=O)CONC(=O)OC(C)(C)C)C(=O)N[C@@H](CC(=O)O)C(=O)N[C@H](C(N)=O)c1ccccc1 [BOC-OGly Met L, 2-(tert.-Butoxycarbonyl-aminooxy)-acetyl-L-tryptophyl-L-methionyl-L-aspartyl-L-phenylglycine-amide] (X1-WMD[Phg]-NH2)
Gastric acid secretion increasing effect in comparison with that of a 0.2 μg/100 g i.v. dosage of pentagastrin (gastric acid secretion [2]; 2.0 μg i.v.): 116 | Gastric acid secretion increasing effect in comparison with that of a 0.2 μg/100 g i.v. dosage of pentagastrin (gastric acid secretion [2]; 20 μg intestinal (text: 20 μg/100 g body weight)): 124 | Gastric acid secretion increasing effect in comparison with that of a 0.2 μg/100 g i.v. dosage of pentagastrin (gastric acid secretion [2]; 20 μg rectal): 38

CSCC[C@H](NC(=O)[C@H](Cc1c[nH]c2ccccc12)NC(=O)CCNC(=O)OC(C)(C)C)C(=O)N[C@@H](CC(=O)O)C(=O)N[C@@H](Cc1ccccc1)C(N)=O [pentagastrin, BOC-β-Ala-Trp-Met-Asp-Phe-NH2, reference compound]
Effect on gastric acid secretion (gastric acid secretion [2]; administered enterally, even in higher dosages): does not increase the gastric acid secretion

CSCC[C@H](NC(=O)[C@H](Cc1c[nH]c2ccccc12)NC(=O)CONC(=O)OC(C)(C)C)C(=O)N[C@@H](CC(=O)O)C(=O)N[C@@H](C(N)=O)c1ccccc1 [BOC-OGly Met D, 2-(tert.-Butoxycarbonyl-aminooxy)-acetyl-L-tryptophyl-L-methionyl-L-aspartyl-D-phenylglycine-amide] (X1-WMD[dPhg]-NH2)
Gastric acid secretion increasing effect in comparison with that of a 0.2 μg/100 g i.v. dosage of pentagastrin (gastric acid secretion [2]; 0.2 μg i.v.): 28 | Gastric acid secretion increasing effect in comparison with that of a 0.2 μg/100 g i.v. dosage of pentagastrin (gastric acid secretion [2]; 2.0 μg i.v.): 50
